Results taken from US11066378B2, “Caffeic acid derivatives for anti-angiogenesis” (Taipei Medical University, priority 2015, dated 2021).

Test system: HUVECs
Test: Cell viability assay (MTT assay), growth inhibition of HUVECs
Assay type: cell-based, human
Conditions: Homo sapiens, HUVEC, 24 h, MTT assay, 24 h treatment, 5% FBS-stimulated HUVECs
Procedure: Human umbilical vein endothelial cells (HUVECs; #8000) were purchased from the ScienCell Research Laboratories (San Diego, Calif., USA). The cells were seeded on gelatin-coated culture dishes and grown in the commercial endothelial cell medium (#1001; ScienCell) containing 5% fetal bovine serum (FBS; #0025; ScienCell), 30 μg/mL endothelial cell growth supplements (ECGS; #1052; ScienCell), 100 units/mL penicillin G, and 100 μg/mL streptomycin sulfates (#0503; ScienCell). Cells at passage 3-6 were used for experiments. Mouse Lewis lung carcinoma cell line 1 (LLC1; #60050) was bought from the Food Industry Research and Development Institute (Hsinchu, Taiwan) and cultured in Gibco® Dulbecco's modified Eagle's medium (#12800-017; Invitrogen, Carlsbad, Calif., USA) supplemented with 10% FBS (HyClone, Logan, Utah, USA), 4 mM L-glutamine, 1.5 g/L sodium bicarbonate, 100 units/mL penicillin G, and 100 μg/mL streptomycin. All cells were incubated in a humidified 5% CO2 atmosphere at 37° C. and culture media was changed every 2˜3 days.
The experiments were performed according to our previous study with minor modifications (Pan et al., 2010). Briefly, the cells (2×10^4 cells/well) were seeded and grown under normal culture medium for 24 h. After another 24 h of starvation with 0.5% FBS, the cells were treated with several concentrations (1, 2, 4, 8, and 16 μM) of the tested compounds for 24 h and then incubated with 5 mg/mL of MTT (3-[4,5-dimethyl thiazol-2-yl]-2,5-diphenyl tetrazolium bromide) for 2 h. After that, the cells were washed with 1×PBS and then dimethyl sulfoxide (DMSO) was added to each well. Absorbance values at 570 nm were determined for each well using 650 nm as the reference wavelength. The absorbance of the control group (treated with 5% or 10% FBS alone) was defined as 100%.

Compound | GI50 [µM]
COc1cc([C@H]2Oc3c(OC)cc(/C=C/C=O)cc3[C@@H]2C)ccc1O [K20A] | 24
COC(=O)/C=C/c1cc(OC(C)=O)c2oc(-c3ccc(OC(C)=O)c(OC(C)=O)c3)c(C(=O)OC)c2c1 [K20B] | 24
COC(=O)/C=C/c1cc(OC)c2c(c1)[C@H](C(=O)OC)[C@@H](c1ccc(O)c(OC)c1)O2 [K20L] | 32
COC(=O)/C=C/c1ccc(O)c(O)c1 [Methyl caffeate, reference compound] | 80
